Molecules are shown by their SMILES. Like-named read-outs stand apart in the source and are kept apart here.

Results on nine compounds are retold here after publication PMC10108347, “Heterobifunctional Ligase Recruiters Enable pan-Degradation of Inhibitor of Apoptosis Proteins” (Journal of Medicinal Chemistry, 2023).

Data set [1] deals with VHL30 (Homo sapiens, UniProt P40337). Nature of the data set: Immunoblotting (western blot) quantification of VHL30 levels in MM.1S cells. The settings on record: for remaining activity at 0.1 µM: MM1.S.
Procedure: To evaluate the capability of our panel of hetero-PROTACs for E3 ligase degradation, VHL19, VHL30, CRBN, cIAP1, cIAP2, and XIAP levels were quantified by western blot analyses. […] SDS-PAGE was performed, and proteins were then transferred onto PVDF membranes. Blotted membranes were blocked with 5% milk in Tris-buffered saline/Tween20 (TBST). Primary antibodies were diluted in 5% BSA in TBST, and incubations were performed overnight at 4 °C. Secondary HRP-conjugated antibodies diluted in 5% milk were incubated for 1 h at room temperature. Detection of proteins on PVDF was carried out using the WesternBright ECL HRP substrate or the WesternBright Sirius HRP substrate (Advansta, San Jose, USA) and imaged with LAS 4000× (Fujifilm). Membranes were subjected to 10 min incubation with Restore Western Blot Stripping Buffer (Thermo Fisher Scientific, Waltham, USA), followed by TBST washes. After brief re-activation with methanol, the membranes were blocked, and further probing of proteins was carried out.
Quantification of blots was performed using ImageJ software (National Institutes of Health).
The target in data set [2] is XIAP (Homo sapiens, UniProt P98170). Nature of the data set: Immunoblotting (western blot) quantification of XIAP levels in MM.1S cells. The settings on record: MM1.S, 16 h. A general note: Immunoblotting shows a protein as a band on a membrane.
Data set [3] addresses cIAP1 (Homo sapiens, UniProt Q13490). Nature of the data set: Immunoblotting (western blot) quantification of cIAP1 levels in MM.1S cells. The settings on record: MM1.S, 16 h.
Data set [4] has as its target cIAP2 (Homo sapiens, UniProt Q13489). Nature of the data set: Immunoblotting (western blot) quantification of cIAP2 levels in MM.1S cells. The following applies: MM1.S, 16 h.
Data set [5] deals with IAPs (cIAP1, cIAP2, XIAP). The data set is described as follows: Immunoblotting of IAPs in MM.1S cells, overall degradation profile, time course and washout. In kind it is cell-based. The following applies: 16 h, western blot, concentration (10 nM to 1 μM). How it is done: Next, we examined the persistence of IAP degradation in MM.1S cells after a single exposure to 1 μM of 9 and subsequent removal of the compound. […] The reliance on CRL2^VHL was assessed with a neddylation inhibitor MLN4924, which blocks the activity of CRLs (Figure S13A).

A short description of data set [6]: Log D7.4 measurement by chromatographic (fast-gradient HPLC) method. The settings on record: pH 7.4.
Procedure: The system was calibrated by plotting the retention times of six different drugs (atenolol, metoprolol, labetalol, diltiazem, triphenylene, and permethrin) versus their literature-known log D7.4 in a calibration line (R^2 = 0.99). Subsequently, the mean retention times of the analytes were taken to calculate their log D7.4 values with the aid of the calibration line. At least two independent measurements of each analyte were performed.
Setting [7] is: read-out: %remaining protein XIAP, MM.1S cells, 16 h treatment at 0.1 μM, normalized to loading control and DMSO.
Setting [8] is: read-out: %remaining protein cIAP1, MM.1S cells, 16 h treatment at 0.1 μM, normalized to loading control and DMSO.
Where [9] appears, read: read-out: %remaining protein cIAP2, MM.1S cells, 16 h treatment at 0.1 μM, normalized to loading control and DMSO.
Setting [10] is: 16 h, read-out: %remaining protein VHL30, MM.1S cells, 16 h treatment at 0.1 μM, normalized to loading control and DMSO.
The mark [11] stands for this setting: read-out: %remaining protein XIAP.
Where [12] appears, read: read-out: %remaining protein cIAP1.
[13] abbreviates: read-out: %remaining protein cIAP2.
[14] abbreviates: 16 h, read-out: %remaining protein VHL30.

Sequence of VHL30 (P40337 whole entry): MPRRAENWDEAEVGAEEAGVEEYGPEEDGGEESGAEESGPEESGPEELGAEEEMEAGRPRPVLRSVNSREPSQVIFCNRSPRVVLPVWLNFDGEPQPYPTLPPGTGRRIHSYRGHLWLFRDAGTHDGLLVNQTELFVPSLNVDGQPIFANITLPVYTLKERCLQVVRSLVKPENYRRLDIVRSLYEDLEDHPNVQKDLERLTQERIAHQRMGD
Sequence of cIAP1 (Q13490 whole entry): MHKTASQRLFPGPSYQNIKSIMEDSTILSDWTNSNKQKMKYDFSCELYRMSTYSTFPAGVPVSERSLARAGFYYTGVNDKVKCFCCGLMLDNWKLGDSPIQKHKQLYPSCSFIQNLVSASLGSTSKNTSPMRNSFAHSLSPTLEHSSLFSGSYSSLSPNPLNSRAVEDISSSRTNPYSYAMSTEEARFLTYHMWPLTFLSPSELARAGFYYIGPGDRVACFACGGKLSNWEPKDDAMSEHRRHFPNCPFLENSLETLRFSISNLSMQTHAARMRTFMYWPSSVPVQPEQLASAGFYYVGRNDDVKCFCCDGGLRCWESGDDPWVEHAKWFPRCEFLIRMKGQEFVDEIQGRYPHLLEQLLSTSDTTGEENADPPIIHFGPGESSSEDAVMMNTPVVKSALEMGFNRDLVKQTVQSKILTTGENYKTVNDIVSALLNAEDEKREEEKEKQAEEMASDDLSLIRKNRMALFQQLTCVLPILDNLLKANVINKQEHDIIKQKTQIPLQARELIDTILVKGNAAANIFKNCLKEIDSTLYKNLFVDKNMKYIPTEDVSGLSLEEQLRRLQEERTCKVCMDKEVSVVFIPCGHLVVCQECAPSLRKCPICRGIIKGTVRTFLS
Sequence of XIAP (P98170 whole entry): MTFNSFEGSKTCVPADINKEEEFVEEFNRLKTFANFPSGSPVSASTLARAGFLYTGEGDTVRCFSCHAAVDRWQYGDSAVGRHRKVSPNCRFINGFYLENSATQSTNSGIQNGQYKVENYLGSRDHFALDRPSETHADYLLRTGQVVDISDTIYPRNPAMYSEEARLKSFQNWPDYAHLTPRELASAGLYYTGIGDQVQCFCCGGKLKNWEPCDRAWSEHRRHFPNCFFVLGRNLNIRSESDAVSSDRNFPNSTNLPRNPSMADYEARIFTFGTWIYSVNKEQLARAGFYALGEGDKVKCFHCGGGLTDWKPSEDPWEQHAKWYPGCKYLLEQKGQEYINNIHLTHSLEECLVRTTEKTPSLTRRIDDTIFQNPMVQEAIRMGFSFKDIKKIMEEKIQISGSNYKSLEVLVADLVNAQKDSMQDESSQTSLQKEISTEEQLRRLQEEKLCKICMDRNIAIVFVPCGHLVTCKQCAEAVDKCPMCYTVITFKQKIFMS
Sequence of cIAP2 (Q13489 whole entry): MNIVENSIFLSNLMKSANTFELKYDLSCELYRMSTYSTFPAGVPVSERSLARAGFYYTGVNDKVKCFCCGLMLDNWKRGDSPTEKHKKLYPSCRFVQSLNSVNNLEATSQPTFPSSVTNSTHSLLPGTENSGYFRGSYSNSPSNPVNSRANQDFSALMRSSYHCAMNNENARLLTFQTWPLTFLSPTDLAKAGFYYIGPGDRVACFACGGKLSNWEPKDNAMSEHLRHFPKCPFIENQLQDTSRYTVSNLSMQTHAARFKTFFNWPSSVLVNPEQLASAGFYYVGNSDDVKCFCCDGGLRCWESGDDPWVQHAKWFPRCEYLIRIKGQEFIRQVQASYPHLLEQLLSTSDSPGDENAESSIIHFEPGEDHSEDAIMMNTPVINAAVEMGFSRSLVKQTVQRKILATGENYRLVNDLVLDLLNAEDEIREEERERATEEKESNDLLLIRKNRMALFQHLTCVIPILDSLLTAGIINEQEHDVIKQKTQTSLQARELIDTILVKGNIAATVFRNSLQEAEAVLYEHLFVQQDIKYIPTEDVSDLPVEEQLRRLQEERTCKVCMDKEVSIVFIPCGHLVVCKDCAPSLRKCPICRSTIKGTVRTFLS

As to `Cc1ncsc1-c1ccc(CNC(=O)[C@@H]2C[C@@H](O)CN2C(=O)[C@@H](NC(=O)COCCOCCOCCOCCOCCOCC(=O)N[C@H](C(=O)N2C[C@H](O)C[C@H]2C(=O)NCc2ccc(-c3scnc3C)cc2)C(C)(C)C)C(C)(C)C)cc1` [CM11, reference compound], the “VHL30 degradation (in words)” value in data set [1] (MM.1S cells, western blot) is “strong and dose-dependent VHL30 degradation”.

For `CN[C@@H](C)C(=O)N[C@H](C(=O)N1C[C@@H](Oc2cccc(OCCCCOCCCC(=O)N[C@H](C(=O)N3C[C@H](O)C[C@H]3C(=O)NCc3ccc(-c4scnc4C)cc3)C(C)(C)C)c2)C[C@H]1C(=O)N[C@@H]1CCCc2ccccc21)C1CCCCC1` [PROTAC 3, (2S,4S)-1-((S)-2-Cyclohexyl-2-((S)-2-(methylamino)propanamido)acetyl)-4-(3-(4-(4-(((S)-1-((2S,4R)-4-hydroxy-2-((4-(4-methylthiazol-5-yl)benzyl)carbamoyl)pyrrolidin-1-yl)-3,3-dimethyl-1-oxobutan-2-yl)amino)-4-oxobutoxy)butoxy)phenoxy)-N-((R)-1,2,3,4-tetrahydronaphthalen-1-yl)pyrrolidine-2-carboxamide], the remaining activity at 0.1 µM is 4% in data set [2] (setting [7]), 3% in data set [3] (setting [8]), 30% in data set [4] (setting [9]) and 29% in data set [1] (setting [10]). In data set [1] (MM.1S cells, 16 h, 0.1 μM, quantified by western blot), this compound had a VHL30 protein degradation of 71%.

In the case of `CN[C@@H](C)C(=O)N[C@H](C(=O)N1C[C@@H](Oc2cccc(OCCOCCOCCOCC(=O)N[C@H](C(=O)N3C[C@H](O)C[C@H]3C(=O)NCc3ccc(-c4scnc4C)cc3)C(C)(C)C)c2)C[C@H]1C(=O)N[C@@H]1CCCc2ccccc21)C1CCCCC1` [PROTAC 5, (2S,4R)-1-((S)-2-(tert-Butyl)-14-(3-(((3S,5S)-1-((S)-2-cyclohexyl-2-((S)-2-(methylamino)propanamido)acetyl)-5-(((R)-1,2,3,4-tetrahydronaphthalen-1-yl)carbamoyl)pyrrolidin-3-yl)oxy)phenoxy)-4-oxo-6,9,12-trioxa-3-azatetradecanoyl)-4-hydroxy-N-(4-(4-methylthiazol-5-yl)benzyl)pyrrolidine-2-carboxamide], the remaining activity at 0.1 µM in data set [2] (setting [7]) came out at 2%; in data set [3] (setting [8]), 2%; in data set [4] (setting [9]), 37%; in data set [1] (setting [10]) it was 37%.

For the compound `CN[C@@H](C)C(=O)N[C@H](C(=O)N1C[C@@H](Oc2cccc(OCCCCCCOCCCCCOCCCCC(=O)N[C@H](C(=O)N3C[C@H](O)C[C@H]3C(=O)NCc3ccc(-c4scnc4C)cc3)C(C)(C)C)c2)C[C@H]1C(=O)N[C@@H]1CCCc2ccccc21)C1CCCCC1` [PROTAC 7, (2S,4S)-1-((S)-2-Cyclohexyl-2-((S)-2-(methylamino)propanamido)acetyl)-4-(3-((6-((5-((5-(((S)-1-((2S,4R)-4-hydroxy-2-((4-(4-methylthiazol-5-yl)benzyl)carbamoyl)pyrrolidin-1-yl)-3,3-dimethyl-1-oxobutan-2-yl)amino)-5-oxopentyl)oxy)pentyl)oxy)hexyl)oxy)phenoxy)-N-((R)-1,2,3,4-tetrahydronaphthalen-1-yl)pyrrolidine-2-carboxamide], the remaining activity at 0.1 µM came out at 3% in data set [2] (setting [11]), 2% in data set [3] (setting [12]), 32% in data set [4] (setting [13]) and 83% in data set [1] (setting [14]).

As to `CN[C@@H](C)C(=O)N[C@H](C(=O)N1C[C@@H](Oc2cccc(OCCCCCCOCCCCCCOCCCCCC(=O)N[C@H](C(=O)N3C[C@H](O)C[C@H]3C(=O)NCc3ccc(-c4scnc4C)cc3)C(C)(C)C)c2)C[C@H]1C(=O)N[C@@H]1CCCc2ccccc21)C1CCCCC1` [PROTAC 8, (2S,4S)-1-((S)-2-Cyclohexyl-2-((S)-2-(methylamino)propanamido)acetyl)-4-(3-((6-((6-((6-(((S)-1-((2S,4R)-4-hydroxy-2-((4-(4-methylthiazol-5-yl)benzyl)carbamoyl)pyrrolidin-1-yl)-3,3-dimethyl-1-oxobutan-2-yl)amino)-6-oxohexyl)oxy)hexyl)oxy)hexyl)oxy)phenoxy)-N-((R)-1,2,3,4-tetrahydronaphthalen-1-yl)pyrrolidine-2-carboxamide], the remaining activity at 0.1 µM in data set [2] (setting [7]) was 4%; in data set [3] (setting [8]) it was 3%; in data set [4] (setting [9]), 36%; in data set [1] (setting [10]), 95%.

For the compound `CN[C@H](C)C(=O)N[C@H](C(=O)N1C[C@@H](Oc2cccc(OCCCCC(=O)N[C@H](C(=O)N3C[C@H](O)C[C@H]3C(=O)N[C@@H](C)c3ccc(-c4scnc4C)cc3)C(C)(C)C)c2)C[C@H]1C(=O)N[C@@H]1CCCc2ccccc21)C1CCCCC1` [PROTAC 10a, (2S,4S)-1-((S)-2-Cyclohexyl-2-((R)-2-(methylamino)propanamido)acetyl)-4-(3-((5-(((S)-1-((2S,4R)-4-hydroxy-2-(((S)-1-(4-(4-methylthiazol-5-yl)phenyl)ethyl)carbamoyl)pyrrolidin-1-yl)-3,3-dimethyl-1-oxobutan-2-yl)amino)-5-oxopentyl)oxy)phenoxy)-N-((R)-1,2,3,4-tetrahydronaphthalen-1-yl)pyrrolidine-2-carboxamide], in data set [5], the “IAP degradation profile (in words)” value is on record as “pan-IAP”. The remaining activity at 0.1 µM worked out at 8% in data set [2] (setting [7]), 6% in data set [3] (setting [8]), 37% in data set [4] (setting [9]) and 41% in data set [1] (setting [10]).

In the case of `Cc1ncsc1-c1ccc([C@H](C)NC(=O)[C@@H]2C[C@@H](O)CN2C(=O)[C@@H](NC(=O)CCCCOc2cccc(O[C@H]3C[C@@H](C(=O)N[C@@H]4CCCc5ccccc54)N(C(=O)[C@@H](NC(=O)[C@H](C)N(C)C)C4CCCCC4)C3)c2)C(C)(C)C)cc1` [PROTAC 10b, (2S,4S)-1-((S)-2-Cyclohexyl-2-((S)-2-(dimethylamino)propanamido)acetyl)-4-(3-((5-(((S)-1-((2S,4R)-4-hydroxy-2-(((S)-1-(4-(4-methylthiazol-5-yl)phenyl)ethyl)carbamoyl)pyrrolidin-1-yl)-3,3-dimethyl-1-oxobutan-2-yl)amino)-5-oxopentyl)oxy)phenoxy)-N-((R)-1,2,3,4-tetrahydronaphthalen-1-yl)pyrrolidine-2-carboxamide], the “IAP degradation profile (in words)” value in data set [5] was “cIAP1 and cIAP2 degradation”. The remaining activity at 0.1 µM in data set [2] (setting [7]) is 66%; in data set [3] (setting [8]), 2%; in data set [4] (setting [9]), 27%; in data set [1] (setting [10]), 63%.

Usually chromatographic logD stands for a lipophilicity value derived from retention on a column. A lower chromatographic logD goes with lower lipophilicity. For the compound `CN[C@@H](C)C(=O)N[C@H](C(=O)N1C[C@@H](Oc2cccc(OCCCCCCOCCCCCOCCCCCOc3cc(-c4scnc4C)ccc3CNC(=O)[C@@H]3C[C@@H](O)CN3C(=O)[C@H](C(C)C)N3Cc4ccccc4C3=O)c2)C[C@H]1C(=O)N[C@@H]1CCCc2ccccc21)C1CCCCC1` [PROTAC 18, (2S,4S)-1-((S)-2-Cyclohexyl-2-((S)-2-(methylamino)propanamido)acetyl)-4-(3-((6-((5-((5-(2-(((2S,4R)-4-hydroxy-1-((S)-3-methyl-2-(1-oxoisoindolin-2-yl)butanoyl)pyrrolidine-2-carboxamido)methyl)-5-(4-methylthiazol-5-yl)phenoxy)pentyl)oxy)pentyl)oxy)hexyl)oxy)phenoxy)-N-((R)-1,2,3,4-tetrahydronaphthalen-1-yl)pyrrolidine-2-carboxamide], in data set [6], the chromatographic logD was found to be 5.6. Also, the remaining activity at 0.1 µM in data set [2] (setting [11]) stood at 6%; in data set [3] (setting [12]), 5%; in data set [4] (setting [13]), 37%; in data set [1] (setting [14]), 88%.

With `CN[C@@H](C)C(=O)N[C@H](C(=O)N1C[C@@H](Oc2cccc(OCCCCCCOCCCCCCOCCCCCCNc3cccc4c3C(=O)N(C3CCC(=O)N(C)C3=O)C4=O)c2)C[C@H]1C(=O)N[C@@H]1CCCc2ccccc21)C1CCCCC1` (stereo partly drawn) [PROTAC 29, (2S,4S)-1-((S)-2-Cyclohexyl-2-((S)-2-(methylamino)propanamido)acetyl)-4-(3-((6-((6-((6-((2-(1-methyl-2,6-dioxopiperidin-3-yl)-1,3-dioxoisoindolin-4-yl)amino)hexyl)oxy)hexyl)oxy)hexyl)oxy)phenoxy)-N-((R)-1,2,3,4-tetrahydronaphthalen-1-yl)pyrrolidine-2-carboxamide], the chromatographic logD in data set [6] was 7.4.
